The values that follow come from PubChem BioAssay AID200 (DTP/NCI, 2004).

Values joined by “and” are separate entries in the source; they are usually repeats but may differ in a detail not shown here. Equal values may be shown once. Toxic doses and inconclusive results are not listed.

This assay concerns B6C3F1 mice, B16 melanoma ip, median survival T/C. Briefly: NCI In Vivo Anticancer Drug Screen. Data for tumor model B16 Melanoma (intraperitoneal) in B6C3F1 mice. To be noted: endpoint: median survival time, higher = longer survival. The method, boiled down:
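Tumor-bearing mice received test compound; a separate group got vehicle only. Survival was then compared, with results reported as treated over control.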

Where [1] appears, read: dose: 0.12 mg/kg/injection, schedule: Q01DX009 (ip), vehicle: saline.
Where [2] appears, read: dose: 0.25 mg/kg/injection, schedule: Q01DX009 (ip), vehicle: saline.
Where [3] appears, read: dose: 0.5 mg/kg/injection, schedule: Q01DX009 (ip), vehicle: saline.
[4] abbreviates: dose: 1.0 mg/kg/injection, schedule: Q01DX009 (ip), vehicle: saline.
The mark [5] stands for this setting: dose: 0.5 mg/kg/injection, schedule: Q01DX009 (ip), vehicle: saline with Tween-80.
The mark [6] stands for this setting: dose: 1.0 mg/kg/injection, schedule: Q01DX009 (ip), vehicle: saline with Tween-80.

For the compound `COC1CC(C)C(OC)c2cc(O)cc(c2O)NC(=O)/C(C)=C/C=C\C(C)C(OC(N)=O)/C(C)=C\C(C)C1OC` (stereo unspecified), the T/C was 94 % of control (dose: 0.31 mg/kg/injection, schedule: Q01DX005 (iv), vehicle: other); 109 % of control (dose: 0.31 mg/kg/injection, schedule: Q01DX009 (ip), vehicle: other); 98 % of control (dose: 0.31 mg/kg/injection, schedule: Q01DX009 (ip), vehicle: saline with Tween-80); 101 % of control (dose: 0.62 mg/kg/injection, schedule: Q01DX005 (iv), vehicle: other); 112 % of control (dose: 0.62 mg/kg/injection, schedule: Q01DX009 (ip), vehicle: saline with Tween-80); 93 % of control (dose: 1.25 mg/kg/injection, schedule: Q01DX005 (iv), vehicle: other). Besides, the T/C (dose: 1.25 mg/kg/injection, schedule: Q01DX009 (ip), vehicle: other) is 117 % of control; the T/C (dose: 2.5 mg/kg/injection, schedule: Q01DX005 (iv), vehicle: other) was 102 % of control; the T/C (dose: 2.5 mg/kg/injection, schedule: Q01DX009 (ip), vehicle: other) was 119 % of control; the T/C (dose: 5.0 mg/kg/injection, schedule: Q01DX005 (iv), vehicle: other) is 95 % of control; the T/C (dose: 5.0 mg/kg/injection, schedule: Q01DX009 (ip), vehicle: saline with Tween-80) was 171 % of control; the T/C (dose: 10.0 mg/kg/injection, schedule: Q01DX005 (iv), vehicle: other) was 109 % of control. Further, where the note is “dose: 10.0 mg/kg/injection, schedule: Q01DX009 (ip), vehicle: other”, the T/C was 114 % of control.
On to `Cc1c(-c2ccc(-c3ccccc3F)cc2)nc2ccc(F)cc2c1C(=O)O`, for which the T/C is 118 % of control and 102 % of control (dose: 6.25 mg/kg/injection, schedule: Q01DX009 (ip), vehicle: water); 107 % of control (dose: 12.5 mg/kg/injection, schedule: Q01DX009 (ip), vehicle: water); 124 % of control (dose: 25.0 mg/kg/injection, schedule: Q01DX009 (ip), vehicle: water).
As for `CNC(=O)O/N=C(\CN=[N+]=[N-])C(C)(C)C`, the T/C under setting [1] was 104 % of control, the T/C under setting [2] is 99 % of control, the T/C under setting [3] is 118 % of control and the T/C under setting [4] was 101 % of control.
With `O=C(CO)c1ccc([N+](=O)[O-])cc1`, the T/C by setting is: (dose: 3.12 mg/kg/injection, schedule: Q01DX009 (ip), vehicle: saline with Tween-80) 113 % of control; (dose: 6.25 mg/kg/injection, schedule: Q01DX009 (ip), vehicle: saline with Tween-80) 94 % of control; (dose: 25.0 mg/kg/injection, schedule: Q01DX009 (ip), vehicle: saline with Tween-80) 105 % of control; (dose: 50.0 mg/kg/injection, schedule: Q01DX009 (ip), vehicle: saline with Tween-80) 100 % of control; (dose: 100.0 mg/kg/injection, schedule: Q01DX009 (ip), vehicle: saline with Tween-80) 93 % of control.
In the case of `CC(C)=CCN1C(=O)c2ccccc2C1=O`, the T/C reads like this: (dose: 100.0 mg/kg/injection, schedule: Q01DX009 (ip), vehicle: saline) 104 % of control; (dose: 200.0 mg/kg/injection, schedule: Q01DX009 (ip), vehicle: saline) 102 % of control; (dose: 400.0 mg/kg/injection, schedule: Q01DX009 (ip), vehicle: saline) 94 % of control.
For the compound `CC(C)CCC(=O)c1ccoc1`, the T/C is 100 % of control (dose: 0.12 mg/kg/injection, schedule: Q03HX027 (ip), vehicle: saline with Tween-80); 100 % of control (dose: 0.25 mg/kg/injection, schedule: Q01DX009 (ip), vehicle: saline with Tween-80); 98 % of control (dose: 0.25 mg/kg/injection, schedule: Q03HX027 (ip), vehicle: saline with Tween-80); 100 % of control under setting [5]; 107 % of control (dose: 0.5 mg/kg/injection, schedule: Q03HX027 (ip), vehicle: saline with Tween-80); 102 % of control under setting [6]. For the same compound, the T/C by setting is: (dose: 1.0 mg/kg/injection, schedule: Q03HX027 (ip), vehicle: saline with Tween-80) 88 % of control; (dose: 2.0 mg/kg/injection, schedule: Q01DX009 (ip), vehicle: saline with Tween-80) 102 % of control; (dose: 2.0 mg/kg/injection, schedule: Q03HX027 (ip), vehicle: saline with Tween-80) 107 % of control.
With `CO[C@@]12[C@H](COC(N)=O)C3=C(C(=O)C(C)=C(N)C3=O)N1C[C@@H]1N[C@@H]12`, the T/C reads like this: (dose: 0.12 mg/kg/injection, schedule: Q01DX009 (ip), vehicle: Klucel (hydroxypropylcellulose) (HPC)) 109 % of control; (dose: 0.12 mg/kg/injection, schedule: Q01DX009 (ip), vehicle: saline with Tween-80) 119 % of control; under setting [1], 120 % of control and 100 % of control; (dose: 0.13 mg/kg/injection, schedule: Q01DX009 (ip), vehicle: water) 109 % of control and 110 % of control; (dose: 0.25 mg/kg/injection, schedule: Q01DX005 (ip), vehicle: saline) 124 % of control; (dose: 0.25 mg/kg/injection, schedule: Q01DX005 (iv), vehicle: saline) 107 % of control. For the same compound, the T/C by setting is: (dose: 0.25 mg/kg/injection, schedule: Q01DX009 (ip), vehicle: Klucel (hydroxypropylcellulose) (HPC)) 116 % of control; under setting [2], 115 % of control; (dose: 0.25 mg/kg/injection, schedule: Q01DX009 (ip), vehicle: water) 124 % of control; (dose: 0.5 mg/kg/injection, schedule: Q01DX001 (ip), vehicle: clinical formulation) 122 % of control; (dose: 0.5 mg/kg/injection, schedule: Q01DX005 (ip), vehicle: saline) 166 % of control; (dose: 0.5 mg/kg/injection, schedule: Q01DX005 (iv), vehicle: saline) 86 % of control. In addition, the T/C (dose: 0.5 mg/kg/injection, schedule: Q01DX009 (ip), vehicle: Klucel (hydroxypropylcellulose) (HPC)) is 116 % of control; the T/C under setting [5] is 166 % of control; the T/C under setting [3] was 161 % of control; the T/C (dose: 0.5 mg/kg/injection, schedule: Q01DX009 (ip), vehicle: water) is 150 % of control; the T/C (dose: 0.75 mg/kg/injection, schedule: Q04DX003 (ip), vehicle: clinical formulation) was 121 % of control; the T/C (dose: 1.0 mg/kg/injection, schedule: Q01DX001 (ip), vehicle: saline) is 165 % of control. Besides, the T/C (dose: 1.0 mg/kg/injection, schedule: Q01DX001 (iv), vehicle: saline) is 93 % of control; the T/C (dose: 1.0 mg/kg/injection, schedule: Q01DX005 (ip), vehicle: saline) is 168 % of control; the T/C (dose: 1.0 mg/kg/injection, schedule: Q01DX009 (ip), vehicle: Klucel (hydroxypropylcellulose) (HPC)) was 155 % of control; the T/C under setting [6] was 191 % of control; the T/C under setting [4] was 185 % of control; the T/C (dose: 1.0 mg/kg/injection, schedule: Q01DX009 (ip), vehicle: water) was 156 % of control and 173 % of control. Also, the T/C is, setting by setting: (dose: 1.0 mg/kg/injection, schedule: Q04DX003 (ip), vehicle: clinical formulation) 156 % of control and 160 % of control; (dose: 1.25 mg/kg/injection, schedule: Q01DX009 (oral), vehicle: water) 91 % of control; (dose: 2.0 mg/kg/injection, schedule: Q01DX001 (ip), vehicle: clinical formulation) 159 % of control; (dose: 2.0 mg/kg/injection, schedule: Q01DX001 (iv), vehicle: saline) 118 % of control; (dose: 2.0 mg/kg/injection, schedule: Q01DX005 (ip), vehicle: saline) 179 % of control; (dose: 2.0 mg/kg/injection, schedule: Q01DX009 (ip), vehicle: water) 190 % of control. Further, the T/C was 190 % of control and 195 % of control (dose: 2.0 mg/kg/injection, schedule: Q04DX003 (ip), vehicle: clinical formulation); 102 % of control (dose: 2.5 mg/kg/injection, schedule: Q01DX009 (oral), vehicle: water); 203 % of control (dose: 3.0 mg/kg/injection, schedule: Q04DX003 (ip), vehicle: clinical formulation); 193 % of control (dose: 4.0 mg/kg/injection, schedule: Q01DX001 (ip), vehicle: clinical formulation); 176 % of control (dose: 4.0 mg/kg/injection, schedule: Q01DX001 (ip), vehicle: saline); 115 % of control (dose: 4.0 mg/kg/injection, schedule: Q01DX001 (iv), vehicle: saline). The T/C (dose: 4.0 mg/kg/injection, schedule: Q04DX003 (ip), vehicle: clinical formulation) is 239 % of control; the T/C (dose: 8.0 mg/kg/injection, schedule: Q01DX001 (ip), vehicle: clinical formulation) is 164 % of control; the T/C (dose: 8.0 mg/kg/injection, schedule: Q01DX001 (ip), vehicle: saline) was 216 % of control.
